Assays:
Experiment in all cases: biochemical
Set-up in all cases: DiscoveRx KINOMEscan competition binding, percent of DMSO control signal at 100 nM
Conditions in all cases: read-out: Fig. 4a / Percent Control / Compound 1; percent of DMSO control, competition binding
[1] = target: T1, ABL1(M351T)-phosphorylated (Homo sapiens, UniProt P00519, M351T)
T1 construct: phosphorylated

[2] = target: T2, ABL1(T315I)-nonphosphorylated (Homo sapiens, UniProt P00519, T315I)
T2 construct: nonphosphorylated

AURKB = AURKB (Homo sapiens, UniProt Q96GD4)
DCAMKL1 = target: T3, DCAMKL1 (Homo sapiens, UniProt O15075)
T3 construct: gene DCLK1

DCAMKL2 = target: T4, DCAMKL2 (Homo sapiens, UniProt Q8N568)
T4 construct: gene DCLK2

EPHB3 = EPHB3 (Homo sapiens, UniProt P54753)
FGFR3(G697C) = FGFR3(G697C) (Homo sapiens, UniProt P22607, G697C)
FLT1 = FLT1 (Homo sapiens, UniProt P17948)
GRK7 = GRK7 (Homo sapiens, UniProt Q8WTQ7)
HIPK3 = HIPK3 (Homo sapiens, UniProt Q9H422)
IKK-alpha = target: T5, IKK-alpha (Homo sapiens, UniProt O15111)
T5 construct: gene CHUK

INSRR = INSRR (Homo sapiens, UniProt P14616)
KIT-autoinhibited = KIT-autoinhibited (Homo sapiens, UniProt P10721)
MKNK2 = MKNK2 (Homo sapiens, UniProt Q9HBH9)
NEK9 = NEK9 (Homo sapiens, UniProt Q8TD19)
PAK7 = target: T6, PAK7 (Homo sapiens, UniProt Q9P286)
T6 construct: gene PAK5

PLK1 = PLK1 (Homo sapiens, UniProt P53350)
PRKCD = PRKCD (Homo sapiens, UniProt Q05655)
PRKCH = PRKCH (Homo sapiens, UniProt P24723)
ROCK2 = ROCK2 (Homo sapiens, UniProt O75116)
SBK1 = SBK1 (Homo sapiens, UniProt Q52WX2)
STK39 = STK39 (Homo sapiens, UniProt Q9UEW8)
TGFBR1 = TGFBR1 (Homo sapiens, UniProt P36897)
TRKB = target: T7, TRKB (Homo sapiens, UniProt Q16620)
T7 construct: gene NTRK2

p38-gamma = target: T8, p38-gamma (Homo sapiens, UniProt P53778)
T8 construct: gene MAPK12
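Further: KINOMEscan kinase panel binding assay, signal normalized between DMSO as 100% and a positive control compound as 0%.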

Chain of SBK1 (Q52WX2 whole entry): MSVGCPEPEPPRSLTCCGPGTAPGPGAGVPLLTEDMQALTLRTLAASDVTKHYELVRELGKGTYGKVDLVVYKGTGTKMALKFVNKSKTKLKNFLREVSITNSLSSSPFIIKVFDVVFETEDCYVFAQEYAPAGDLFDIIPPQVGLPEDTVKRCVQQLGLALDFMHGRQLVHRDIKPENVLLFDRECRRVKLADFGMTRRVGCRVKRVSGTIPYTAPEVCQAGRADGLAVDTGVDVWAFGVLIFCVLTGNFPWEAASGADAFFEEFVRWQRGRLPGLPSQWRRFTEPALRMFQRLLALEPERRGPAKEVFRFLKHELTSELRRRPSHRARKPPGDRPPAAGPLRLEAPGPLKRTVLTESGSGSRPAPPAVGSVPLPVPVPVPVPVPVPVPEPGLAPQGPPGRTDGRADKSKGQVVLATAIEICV
T5 sequence (O15111 whole entry): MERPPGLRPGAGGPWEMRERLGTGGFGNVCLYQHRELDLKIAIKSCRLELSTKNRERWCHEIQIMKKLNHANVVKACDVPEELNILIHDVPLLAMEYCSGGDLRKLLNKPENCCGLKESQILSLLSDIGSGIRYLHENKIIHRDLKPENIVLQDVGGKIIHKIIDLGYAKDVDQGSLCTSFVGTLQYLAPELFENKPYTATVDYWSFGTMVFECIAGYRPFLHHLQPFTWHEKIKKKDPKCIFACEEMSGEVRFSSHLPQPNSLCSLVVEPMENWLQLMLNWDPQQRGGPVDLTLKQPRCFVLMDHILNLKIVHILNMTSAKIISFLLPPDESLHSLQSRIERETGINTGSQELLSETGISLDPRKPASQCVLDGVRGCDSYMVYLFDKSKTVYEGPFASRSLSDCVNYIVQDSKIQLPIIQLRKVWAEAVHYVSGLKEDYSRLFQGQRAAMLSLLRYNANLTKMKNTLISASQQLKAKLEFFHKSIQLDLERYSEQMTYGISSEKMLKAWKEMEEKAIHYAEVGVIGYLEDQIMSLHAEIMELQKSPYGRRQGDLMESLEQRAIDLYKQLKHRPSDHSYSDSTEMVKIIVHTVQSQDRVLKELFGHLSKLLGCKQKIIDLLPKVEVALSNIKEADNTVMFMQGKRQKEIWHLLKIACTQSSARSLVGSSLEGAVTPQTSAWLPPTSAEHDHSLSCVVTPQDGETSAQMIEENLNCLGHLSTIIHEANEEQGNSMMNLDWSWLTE
Chain of FLT1 (P17948 whole entry): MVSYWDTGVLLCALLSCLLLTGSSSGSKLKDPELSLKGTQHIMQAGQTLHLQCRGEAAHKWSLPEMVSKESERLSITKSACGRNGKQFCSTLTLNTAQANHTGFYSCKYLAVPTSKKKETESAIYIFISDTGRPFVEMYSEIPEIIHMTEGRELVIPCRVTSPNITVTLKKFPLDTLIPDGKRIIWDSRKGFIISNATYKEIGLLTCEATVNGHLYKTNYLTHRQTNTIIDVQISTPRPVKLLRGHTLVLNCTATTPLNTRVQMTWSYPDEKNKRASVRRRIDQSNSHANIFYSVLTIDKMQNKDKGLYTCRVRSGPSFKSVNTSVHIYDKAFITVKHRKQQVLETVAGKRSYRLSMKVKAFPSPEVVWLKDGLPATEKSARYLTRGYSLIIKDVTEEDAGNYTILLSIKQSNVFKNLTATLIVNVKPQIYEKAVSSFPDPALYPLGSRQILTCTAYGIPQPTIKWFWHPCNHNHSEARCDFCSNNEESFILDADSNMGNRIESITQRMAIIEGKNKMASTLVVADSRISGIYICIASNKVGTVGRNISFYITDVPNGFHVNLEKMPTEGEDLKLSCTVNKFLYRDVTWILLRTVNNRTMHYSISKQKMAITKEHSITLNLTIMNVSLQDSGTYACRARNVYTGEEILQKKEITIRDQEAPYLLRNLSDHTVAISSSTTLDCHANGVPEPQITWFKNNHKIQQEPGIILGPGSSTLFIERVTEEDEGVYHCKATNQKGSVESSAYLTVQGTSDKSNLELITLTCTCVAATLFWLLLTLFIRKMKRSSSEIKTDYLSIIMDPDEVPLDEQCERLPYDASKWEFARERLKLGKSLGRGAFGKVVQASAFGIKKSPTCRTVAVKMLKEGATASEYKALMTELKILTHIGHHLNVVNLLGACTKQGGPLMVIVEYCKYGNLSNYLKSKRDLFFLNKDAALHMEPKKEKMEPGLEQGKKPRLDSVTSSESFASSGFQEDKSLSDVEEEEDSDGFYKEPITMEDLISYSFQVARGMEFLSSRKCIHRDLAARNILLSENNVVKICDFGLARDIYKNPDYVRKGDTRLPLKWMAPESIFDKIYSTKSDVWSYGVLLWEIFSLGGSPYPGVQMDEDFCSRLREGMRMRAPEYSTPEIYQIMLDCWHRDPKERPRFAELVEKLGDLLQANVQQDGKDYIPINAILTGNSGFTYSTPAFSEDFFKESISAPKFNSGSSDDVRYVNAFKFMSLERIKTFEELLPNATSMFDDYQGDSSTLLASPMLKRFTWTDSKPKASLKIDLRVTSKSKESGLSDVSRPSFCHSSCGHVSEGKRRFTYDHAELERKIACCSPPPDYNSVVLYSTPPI
Chain of HIPK3 (Q9H422 whole entry): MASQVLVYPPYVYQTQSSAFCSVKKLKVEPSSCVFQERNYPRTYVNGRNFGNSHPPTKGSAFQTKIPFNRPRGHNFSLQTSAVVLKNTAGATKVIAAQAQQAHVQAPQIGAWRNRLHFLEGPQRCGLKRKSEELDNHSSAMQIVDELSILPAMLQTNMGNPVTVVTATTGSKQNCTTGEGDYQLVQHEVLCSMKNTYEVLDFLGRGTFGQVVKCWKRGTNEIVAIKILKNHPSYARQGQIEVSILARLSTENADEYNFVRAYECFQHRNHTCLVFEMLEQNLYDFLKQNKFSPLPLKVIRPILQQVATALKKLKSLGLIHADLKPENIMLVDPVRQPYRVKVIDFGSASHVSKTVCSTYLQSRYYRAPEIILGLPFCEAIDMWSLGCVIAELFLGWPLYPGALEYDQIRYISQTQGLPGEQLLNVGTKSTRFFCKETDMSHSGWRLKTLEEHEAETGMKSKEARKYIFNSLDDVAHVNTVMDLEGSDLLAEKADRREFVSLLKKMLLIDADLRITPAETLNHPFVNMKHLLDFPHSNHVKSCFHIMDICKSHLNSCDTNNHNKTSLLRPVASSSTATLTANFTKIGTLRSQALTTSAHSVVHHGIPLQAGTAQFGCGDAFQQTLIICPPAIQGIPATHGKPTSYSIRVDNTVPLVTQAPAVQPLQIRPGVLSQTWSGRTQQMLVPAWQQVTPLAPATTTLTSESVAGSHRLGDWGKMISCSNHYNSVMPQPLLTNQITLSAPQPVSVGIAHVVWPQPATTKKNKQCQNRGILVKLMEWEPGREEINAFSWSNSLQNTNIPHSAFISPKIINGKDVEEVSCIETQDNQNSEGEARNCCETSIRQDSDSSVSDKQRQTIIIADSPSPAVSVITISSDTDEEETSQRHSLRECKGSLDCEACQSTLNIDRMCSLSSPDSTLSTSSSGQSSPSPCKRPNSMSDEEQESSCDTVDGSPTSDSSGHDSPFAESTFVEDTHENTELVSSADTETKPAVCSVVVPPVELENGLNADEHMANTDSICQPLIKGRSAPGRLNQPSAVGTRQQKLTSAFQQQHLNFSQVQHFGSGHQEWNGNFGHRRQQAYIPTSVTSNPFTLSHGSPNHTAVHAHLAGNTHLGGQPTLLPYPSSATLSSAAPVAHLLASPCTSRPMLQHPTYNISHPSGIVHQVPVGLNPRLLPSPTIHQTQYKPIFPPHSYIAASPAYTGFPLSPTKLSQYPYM
T7 sequence (Q16620 whole entry): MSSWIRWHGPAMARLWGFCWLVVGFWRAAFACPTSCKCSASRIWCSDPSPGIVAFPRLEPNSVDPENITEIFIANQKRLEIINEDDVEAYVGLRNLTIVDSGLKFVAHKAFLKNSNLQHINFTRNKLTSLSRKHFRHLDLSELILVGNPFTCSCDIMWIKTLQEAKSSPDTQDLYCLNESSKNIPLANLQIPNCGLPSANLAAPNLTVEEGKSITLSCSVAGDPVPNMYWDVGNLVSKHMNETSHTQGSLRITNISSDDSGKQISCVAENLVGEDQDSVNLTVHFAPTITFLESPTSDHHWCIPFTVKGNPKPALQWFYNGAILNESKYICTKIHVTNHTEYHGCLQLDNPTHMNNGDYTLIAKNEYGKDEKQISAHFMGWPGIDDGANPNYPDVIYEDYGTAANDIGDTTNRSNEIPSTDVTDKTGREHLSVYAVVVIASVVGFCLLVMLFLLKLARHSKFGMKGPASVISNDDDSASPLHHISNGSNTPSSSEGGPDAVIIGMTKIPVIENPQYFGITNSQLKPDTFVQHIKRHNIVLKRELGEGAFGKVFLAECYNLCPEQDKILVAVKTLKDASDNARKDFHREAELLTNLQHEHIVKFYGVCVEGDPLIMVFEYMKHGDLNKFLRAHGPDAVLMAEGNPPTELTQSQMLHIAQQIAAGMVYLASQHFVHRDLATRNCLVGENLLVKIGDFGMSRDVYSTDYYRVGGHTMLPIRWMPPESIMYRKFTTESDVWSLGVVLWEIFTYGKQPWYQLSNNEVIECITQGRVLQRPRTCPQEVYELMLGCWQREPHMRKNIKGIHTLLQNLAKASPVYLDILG
Chain of MKNK2 (Q9HBH9 whole entry): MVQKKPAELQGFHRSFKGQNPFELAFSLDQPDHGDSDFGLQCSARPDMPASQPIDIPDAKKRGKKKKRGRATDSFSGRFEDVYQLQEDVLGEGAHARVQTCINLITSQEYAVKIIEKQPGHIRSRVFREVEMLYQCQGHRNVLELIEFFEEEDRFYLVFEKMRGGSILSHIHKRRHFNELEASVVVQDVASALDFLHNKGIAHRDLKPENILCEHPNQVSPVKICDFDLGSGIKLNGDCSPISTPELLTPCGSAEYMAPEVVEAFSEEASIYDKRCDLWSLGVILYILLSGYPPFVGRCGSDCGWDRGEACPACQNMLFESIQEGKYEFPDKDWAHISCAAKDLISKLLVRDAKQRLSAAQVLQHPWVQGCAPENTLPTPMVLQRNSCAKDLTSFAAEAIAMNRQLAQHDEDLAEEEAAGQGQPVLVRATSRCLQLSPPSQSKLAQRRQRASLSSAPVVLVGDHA

Q: With Cc1cnc2nc1Nc1cccc(c1)COCc1cc(ccc1OCCN1CCCC1)N2 [Compound 1] as the compound, how does the remaining binding at 0.1 µM [1] read?
A: Its remaining binding at 0.1 µM is 63%.

Q: What about the remaining binding at 0.1 µM [2] of the same compound?
A: Its remaining binding at 0.1 µM is 80%.

Q: What about the remaining binding at 0.1 µM (AURKB) of the same compound?
A: Its remaining binding at 0.1 µM is 82%.

Q: And the remaining binding at 0.1 µM (DCAMKL1)?
A: The remaining binding at 0.1 µM was 90%.

Q: What about the remaining binding at 0.1 µM (DCAMKL2) of the same compound?
A: Its remaining binding at 0.1 µM is 96%.

Q: What about the remaining binding at 0.1 µM (EPHB3) of the same compound?
A: The remaining binding at 0.1 µM was 100%.

Q: And the remaining binding at 0.1 µM (FGFR3(G697C))?
A: The remaining binding at 0.1 µM was 94%.

Q: What about the remaining binding at 0.1 µM (FLT1) of the same compound?
A: Its remaining binding at 0.1 µM is 100%.

Q: What about the remaining binding at 0.1 µM (GRK7) of the same compound?
A: The remaining binding at 0.1 µM was 93%.

Q: What about the remaining binding at 0.1 µM (HIPK3) of the same compound?
A: The remaining binding at 0.1 µM was 87%.

Q: What about the remaining binding at 0.1 µM (IKK-alpha) of the same compound?
A: The remaining binding at 0.1 µM was 96%.

Q: What about the remaining binding at 0.1 µM (INSRR) of the same compound?
A: The remaining binding at 0.1 µM was 89%.

Q: And the remaining binding at 0.1 µM (KIT-autoinhibited)?
A: The remaining binding at 0.1 µM was 86%.

Q: And the remaining binding at 0.1 µM (MKNK2)?
A: Its remaining binding at 0.1 µM is 67%.

Q: And the remaining binding at 0.1 µM (NEK9)?
A: Its remaining binding at 0.1 µM is 83%.

Q: And the remaining binding at 0.1 µM (PAK7)?
A: Its remaining binding at 0.1 µM is 84%.

Q: And the remaining binding at 0.1 µM (PLK1)?
A: Its remaining binding at 0.1 µM is 94%.

Q: What about the remaining binding at 0.1 µM (PRKCD) of the same compound?
A: The remaining binding at 0.1 µM was 100%.

Q: And the remaining binding at 0.1 µM (PRKCH)?
A: The remaining binding at 0.1 µM was 91%.

Q: And the remaining binding at 0.1 µM (ROCK2)?
A: The remaining binding at 0.1 µM was 83%.

Q: What about the remaining binding at 0.1 µM (SBK1) of the same compound?
A: The remaining binding at 0.1 µM was 57%.

Q: And the remaining binding at 0.1 µM (STK39)?
A: Its remaining binding at 0.1 µM is 62%.

Q: And the remaining binding at 0.1 µM (TGFBR1)?
A: Its remaining binding at 0.1 µM is 94%.

Q: And the remaining binding at 0.1 µM (TRKB)?
A: Its remaining binding at 0.1 µM is 40%.

Q: And the remaining binding at 0.1 µM (p38-gamma)?
A: Its remaining binding at 0.1 µM is 100%.

Source: article PMC10382584, “Macrocyclization of linear molecules by deep learning to facilitate macrocyclic drug candidates discovery” (Nature Communications, 2023)
